Values quoted from earlier work, collected in patent publication US6967218B2, “Pravastatin pharmaceutical formulations and methods of their use” (Biovail Laboratories, Inc., priority 2002, dated 2005).

Experiments:
[1] = Schalke et al, 1992
[2] = intravenous, healthy volunteers
[3] = in vivo

In the case of `CC[C@H](C)C(=O)O[C@H]1C[C@H](O)C=C2C=C[C@H](C)[C@H](CC[C@@H](O)C[C@@H](O)CC(=O)O)[C@H]21` [pravastatin, Pravastatin], the “adverse effect observed in treated patients” value [1] is given as “Severe myopathy”, the “decrease of systemic bioavailability after bedtime (PM) dose compared to morning (AM) dose” value (PM vs AM dose) is given as 60% and the absolute bioavailability (oral, man) is given as 17%. The “fraction of radiolabeled oral dose excreted in feces” value (radiolabeled oral dose) was 70%, the “fraction of radiolabeled oral dose excreted in urine” value (radiolabeled oral dose) was “Approximately 20%” and the “share of total body clearance by non-renal routes (biliary excretion and biotransformation)” value [2] was 53%. The “share of total body clearance via renal excretion” value [2] was “approximately 47%” and the “first-pass extraction ratio in the liver” value [3] was 0.66.
